Bounds are passed on as bounds.

T2 sequence (Q07343 whole entry): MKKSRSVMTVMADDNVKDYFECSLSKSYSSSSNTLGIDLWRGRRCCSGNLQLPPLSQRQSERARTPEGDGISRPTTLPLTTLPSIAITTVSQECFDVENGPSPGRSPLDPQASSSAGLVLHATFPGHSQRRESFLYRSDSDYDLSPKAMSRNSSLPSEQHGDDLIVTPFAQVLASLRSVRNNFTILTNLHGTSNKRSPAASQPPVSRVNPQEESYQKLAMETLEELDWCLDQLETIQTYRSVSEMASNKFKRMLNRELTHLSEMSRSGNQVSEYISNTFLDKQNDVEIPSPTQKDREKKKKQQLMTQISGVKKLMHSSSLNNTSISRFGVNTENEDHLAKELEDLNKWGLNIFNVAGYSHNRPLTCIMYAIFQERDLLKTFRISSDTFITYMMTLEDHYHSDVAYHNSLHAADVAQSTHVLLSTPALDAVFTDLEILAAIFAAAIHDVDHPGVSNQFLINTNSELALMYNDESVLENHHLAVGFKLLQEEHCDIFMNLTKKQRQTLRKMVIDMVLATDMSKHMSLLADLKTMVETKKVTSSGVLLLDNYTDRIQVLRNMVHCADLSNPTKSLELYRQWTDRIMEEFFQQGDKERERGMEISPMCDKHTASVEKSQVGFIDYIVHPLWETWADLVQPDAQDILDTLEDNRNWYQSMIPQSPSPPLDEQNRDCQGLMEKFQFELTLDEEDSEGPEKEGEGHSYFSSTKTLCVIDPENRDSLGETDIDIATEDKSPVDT

The first assay has as its target T1, PDE5A1 (Homo sapiens, UniProt O76074).
T1 construct: from tissue; host or cells: human platelets from fresh donor blood (10,000 x g supernatant of sonicated lysate)
In words: Inhibition of type 5 phosphodiesterase (PDE5) activity, modified SPA test with human platelet lysate. The class given is biochemical. Particulars: 0.5 μM cGMP, read-out: PDE5A1 inhibitory values [measured as −log IC50 (mol/l)] (converted). An outline of the steps:
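Enzyme source is lysate from human platelets (10,000 g supernatant). Compound preincubated 5 min at 37° C in Tris pH 7.4 containing 1 μM motapizone and 10 nM of a PDE2 inhibitor. Reaction started with 0.5 μM cGMP ([3H] tracer) and run 15 min; SPA read-out, IC50 by non-linear regression.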
`COc1cc(-c2ncnc3c(C(=O)N[C@@H]4CN(C(C)=O)C[C@H]4O)c(C)[nH]c23)c(OCC2CC2)cc1F` (relative stereo) [Example E183, N-[(3R*,4R*)-1-Acetyl-4-hydroxypyrrolidin-3-yl]-4-[2-(cyclopropylmethoxy)-4-fluoro-5-methoxyphenyl]-6-methyl-5H-pyrrolo[3,2-d]pyrimidine-7-carboxamide]: the IC50 was under 1 nM. Still for that read-out and setting: as for `COCC(=O)N1C[C@@H](O)[C@H](NC(=O)c2c(C)[nH]c3c(-c4ccc(OC)cc4OCC4CC4)ncnc23)C1` (relative stereo) [Example E65, 4-[2-(Cyclopropylmethoxy)-4-methoxyphenyl]-N-[(3R*,4R*)-4-hydroxy-1-(methoxyacetyl)pyrrolidin-3-yl]-6-methyl-5H-pyrrolo[3,2-d]pyrimidine-7-carboxamide], the figure is under 1 nM. Regarding `COc1cc(-c2ncnc3c(C(=O)N[C@H]4CC[C@H](NC(C)=O)CC4)c(C)[nH]c23)c(OCC2CC2)cc1F` [Example E106, N-(trans-4-Acetamidocyclohexyl)-4-[2-(cyclopropylmethoxy)-4-fluoro-5-methoxyphenyl]-6-methyl-5H-pyrrolo[3,2-d]pyrimidine-7-carboxamide], the IC50 is under 1 nM. Same read-out and setting: in the case of `CCC(=O)N[C@H]1CC[C@@H](NC(=O)c2c(C)[nH]c3c(-c4c(OCC5CC5)ccc5c4OCO5)ncnc23)CC1` [Example E10, 4-[5-(Cyclopropylmethoxy)-1,3-benzodioxol-4-yl]-6-methyl-N-[cis-4-(propionylamino)cyclohexyl]-5H-pyrrolo[3,2-d]pyrimidine-7-carboxamide] it was under 1 nM; in that of `CC(=O)N1CC[C@H](NC(=O)c2c(C)[nH]c3c(-c4ccc(F)cc4OCC4CC4)ncnc23)[C@@H](O)C1` (relative stereo) [Example E34, N-[(3S*,4S*)-1-acetyl-3-hydroxypiperidin-4-yl]-4-[2-(cyclopropylmethoxy)-4-fluorophenyl]-6-methyl-5H-pyrrolo[3,2-d]pyrimidine-7-carboxamide], under 1 nM.

In the case of `COc1ccc(OCC2CC2)c(-c2ncnc3c(C(=O)N[C@@H]4CCN(C(C)=O)C[C@H]4O)c(C)[nH]c23)c1` (relative stereo) [Example E78, N-[(3R*,4R*)-1-acetyl-3-hydroxypiperidin-4-yl]-4-[2-(cyclopropylmethoxy)-5-methoxyphenyl]-6-methyl-5H-pyrrolo[3,2-d]pyrimidine-7-carboxamide], the IC50 is under 1 nM. With `COc1cc(OCC2CC2)c(-c2ncnc3c(C(=O)NC4CCN(C(=O)[C@H](C)O)CC4)c(C)[nH]c23)cc1F` [Example F84, 4-[2-(Cyclopropylmethoxy)-5-fluoro-4-methoxyphenyl]-N-{1-[(2S)-2-hydroxypropanoyl]piperidin-4-yl}-6-methyl-5H-pyrrolo[3,2-d]pyrimidine-7-carboxamide], the IC50 was under 1 nM. As to `COCC(=O)N[C@H]1CC[C@@H](NC(=O)c2c(C)[nH]c3c(-c4cc(C)c(F)cc4OCC4CC4)ncnc23)CC1` [Example E127, 4-[2-(Cyclopropylmethoxy)-4-fluoro-5-methylphenyl]-N-{cis-4-[(methoxyacetyl)amino]cyclohexyl}-6-methyl-5H-pyrrolo[3,2-d]pyrimidine-7-carboxamide], the IC50 was under 1 nM. Same read-out and setting: as for `Cc1[nH]c2c(-c3ccc(F)cc3OCC3CC3)ncnc2c1C(=O)N[C@@H]1CCN(C(=O)CO)C1` [Example F17, 4-[2-(Cyclopropylmethoxy)-4-fluorophenyl]-N-[(3R)-1-(hydroxyacetyl)pyrrolidin-3-yl]-6-methyl-5H-pyrrolo[3,2-d]pyrimidine-7-carboxamide], the figure is 1 to 10 nM; as for `COCC(=O)N1CCC(NC(=O)c2c(C)[nH]c3c(-c4c(OCC5CC5)ccc5c4OCO5)ncnc23)CC1` [Example E3, 4-[5-(Cyclopropylmethoxy)-1,3-benzodioxol-4-yl]-N-[1-(methoxyacetyl)piperidin-4-yl]-6-methyl-5H-pyrrolo[3,2-d]pyrimidine-7-carboxamide], under 1 nM. On the same count and under the same terms, in the case of `Cc1[nH]c2c(-c3c(OCC4CC4)ccc4c3OCO4)ncnc2c1C(=O)NC1CCN(C(=O)[C@H](C)O)CC1` [Example F2, 4-[5-(Cyclopropylmethoxy)-1,3-benzodioxol-4-yl]-N-{1-[(2S)-2-hydroxypropanoyl]piperidin-4-yl}-6-methyl-5H-pyrrolo[3,2-d]pyrimidine-7-carboxamide] it was under 1 nM. The same measure, in the same setting: as for `COc1cc(-c2ncnc3c(C(=O)N[C@H]4CC[C@H](NC(=O)[C@H](C)O)CC4)c(C)[nH]c23)c(OCC2CC2)cc1F` [Example F68, 4-[2-(Cyclopropylmethoxy)-4-fluoro-5-methoxyphenyl]-N-(trans-4-{[(2S)-2-hydroxypropanoyl]amino}cyclohexyl)-6-methyl-5H-pyrrolo[3,2-d]pyrimidine-7-carboxamide], the figure is under 1 nM; as for `Cc1[nH]c2c(-c3ccc(F)cc3OCC3CC3)ncnc2c1C(=O)N[C@H]1CC[C@@H](NC(=O)[C@H](C)O)CC1` [Example F16, 4-[2-(Cyclopropylmethoxy)-4-fluorophenyl]-N-(cis-4-{[(2S)-2-hydroxypropanoyl]amino}cyclohexyl)-6-methyl-5H-pyrrolo[3,2-d]pyrimidine-7-carboxamide], under 1 nM. For the molecule `COc1cc(OCC2CC2)c(-c2ncnc3c(C(=O)N[C@@H]4CCN(C(C)=O)C[C@H]4O)c(C)[nH]c23)cc1F` (relative stereo) [Example E142, N-[(3R*,4R*)-1-Acetyl-3-hydroxypiperidin-4-yl]-4-[2-(cyclopropylmethoxy)-5-fluoro-4-methoxyphenyl]-6-methyl-5H-pyrrolo[3,2-d]pyrimidine-7-carboxamide], the IC50 is under 1 nM. With `COCC(=O)N1CC[C@@H](NC(=O)c2c(C)[nH]c3c(-c4cc(OC)ccc4OCC4CC4)ncnc23)[C@H](O)C1` (relative stereo) [Example E80, 4-[2-(Cyclopropylmethoxy)-5-methoxyphenyl]-N-[(3R*,4R*)-3-hydroxy-1-(methoxyacetyl)piperidin-4-yl]-6-methyl-5H-pyrrolo[3,2-d]pyrimidine-7-carboxamide], the IC50 was 1 to 10 nM.

The next assay addresses T2, PDE4B1 (Homo sapiens, UniProt Q07343).
T2 construct: made in house; host or cells: SF21 insect cells (baculovirus; pCRBac vector), 1000 x g supernatant of homogenate
In words: Inhibition of type 4 phosphodiesterase (PDE4) activity, modified SPA test with recombinant PDE4B1 expressed in SF21 insect cells. The class given is biochemical. Particulars: recombinant PDE4B1, 0.5 μM cAMP, read-out: PDE4B1 inhibitory values [measured as −log IC50 (mol/l)] (converted). On the procedure: Method for Measuring Inhibition of the Type 4 Phosphodiesterase (PDE4) Activity:
The PDE4B1 (GB no. L20966) was a gift of Prof. M. Conti (Stanford University, USA). It was amplified from the original plasmid (pCMV5) via PCR with primers Rb18 (5′-[…]-3′) and Rb10 (5′-[…]-3′) and cloned into the pCRBac vector (Invitrogen, Groningen, NL).
The recombinant baculovirus was prepared by means of homologous recombination in SF9 insect cells. The expression plasmids were cotransfected with Baculo-Gold DNA (Pharmingen, Hamburg) using a standard protocol (Pharmingen, Hamburg). Wt virus-free recombinant virus supernatants were selected using plaque assay methods. After that, high-titre virus supernatants were prepared by amplifying 3 times. PDE4B1 was expressed in SF21 cells by infecting 2×10^6 cells/ml with an MOI (multiplicity of infection) between 1 and 10 in the serum-free medium Insect Express Sf9-S2 (PAA, Pasching, Austria). The cells were cultured at 28° C. for 48-72 hours, after which they were pelleted for 5-10 min at 1000×g and 4° C.
The SF21 insect cells were resuspended, at a concentration of approx. 10^7 cells/ml, in ice-cold (4° C.) homogenization buffer (20 mM Tris, pH 8.2, containing the following additions: 140 mM NaCl, 3.8 mM KCl, 1 mM EGTA, 1 mM MgCl2, 10 mM (3-mercaptoethanol, 2 mM benzamidine, 0.4 mM Pefablock, 10 μM leupeptin, 10 μM pepstatin A, 5 μM trypsin inhibitor) and disrupted by ultrasonication. The homogenate was then centrifuged for 10 min at 1000×g and the supernatant was stored at −80° C. until subsequent use (see below). The protein content was determined by the Bradford method (BioRad, Munich) using BSA as the standard.
PDE4B1 activity was inhibited by the compounds according to the present subject matter in a modified SPA (scintillation proximity assay) test, supplied by Amersham Biosciences (see procedural instructions “phosphodiesterase [3H]cAMP SPA enzyme assay, code TRKQ 7090”), carried out in 96-well microtitre plates (MTP's). The test volume is 100 μl and contains 20 mM Tris buffer (pH 7.4), 0.1 mg/ml of BSA, 5 mM Mg^2+, 0.5 μM cAMP (including about 50,000 cpm of [3H]cAMP), 1 μl of the respective substance dilution in DMSO and sufficient recombinant PDE (1000×g supernatant, see above) to ensure that 10-20% of the cAMP is converted under the said experimental conditions. […] After a preincubation of 5 min at 37° C., the reaction is started by adding the substrate (cAMP) and the assays are incubated for a further 15 min; after that, they are stopped by adding SPA beads (50 μl). In accordance with the manufacturer's instructions, the SPA beads had previously been resuspended in water, but were then diluted 1:3 (v/v) in water; the diluted solution also contains 3 mM IBMX to ensure a complete PDE activity stop. After the beads have been sedimented (>30 min), the MTP's are analyzed in commercially available luminescence detection devices. The corresponding IC50 values of the compounds for the inhibition of PDE4B1 activity are determined from the concentration-effect curves by means of non-linear regression.
Regarding `CC(=O)N[C@H]1C[C@@H](F)[C@H](NC(=O)c2c(C)[nH]c3c(-c4cc(C(F)F)ccc4OCC4CC4)ncnc23)C1` (relative stereo) [Example P99, N-[(1R*,2R*,4R*)-4-(Acetylamino)-2-fluorocyclopentyl]-4-[2-(cyclopropylmethoxy)-5-(difluoromethyl)phenyl]-6-methyl-5H-pyrrolo[3,2-d]pyrimidine-7-carboxamide], the IC50 is under 100 nM. Consider `CCC(=O)N[C@H]1C[C@@H](F)[C@H](NC(=O)c2c(C)[nH]c3c(-c4cc(C(F)F)ccc4OCC4CC4)ncnc23)C1` (relative stereo) [Example P100, 4-[2-(Cyclopropylmethoxy)-5-(difluoromethyl)phenyl]-N-[(1R*,2R*,4R*)-2-fluoro-4-(propanoylamino)cyclopentyl]-6-methyl-5H-pyrrolo[3,2-d]pyrimidine-7-carboxamide], for which the IC50 was under 100 nM. With `COCC(=O)N[C@H]1C[C@@H](F)[C@H](NC(=O)c2c(C)[nH]c3c(-c4cc(C(F)F)ccc4OCC4CC4)ncnc23)C1` (relative stereo) [Example P101, 4-[2-(Cyclopropylmethoxy)-5-(difluoromethyl)phenyl]-N-{(1R*,2R*,4R*)-2-fluoro-4-[(methoxyacetyl)amino]cyclopentyl}-6-methyl-5H-pyrrolo[3,2-d]pyrimidine-7-carboxamide], the IC50 was under 100 nM.
